Source: publication PMC2813863, “In Vivo Evaluation of α7 Nicotinic Acetylcholine Receptor Agonists [^11C]A-582941 and [^11C]A-844606 in Mice and Conscious Monkeys” (PLoS ONE, 2010)

Molecular target: α7 nAChRs (Mus musculus, UniProt P49582)
Settings: in vivo
Method: In the other group of mice, a blocking experiment to determine the α7 nAChRs-specific regional brain uptake of the tracers was carried out. Each tracer (2 MBq/0.055–0.096 nmol) was co-injected with each of the following blockers into mice, and 15 ([^11C]A-582941) or 30 ([^11C]A-844606) min later the mice were killed (n = 5) and the tissue uptake of ^11C was expressed as the %ID/g. […] Each blocker was dissolved in 1N HCl to 40 mg/ml and diluted up to 0.4 mg/ml with saline. The co-injected dose was 1 mg/kg. In the control mice the same amount of 0.01 N HCl in saline was co-injected.

Sequence of α7 nAChRs (P49582 23-502): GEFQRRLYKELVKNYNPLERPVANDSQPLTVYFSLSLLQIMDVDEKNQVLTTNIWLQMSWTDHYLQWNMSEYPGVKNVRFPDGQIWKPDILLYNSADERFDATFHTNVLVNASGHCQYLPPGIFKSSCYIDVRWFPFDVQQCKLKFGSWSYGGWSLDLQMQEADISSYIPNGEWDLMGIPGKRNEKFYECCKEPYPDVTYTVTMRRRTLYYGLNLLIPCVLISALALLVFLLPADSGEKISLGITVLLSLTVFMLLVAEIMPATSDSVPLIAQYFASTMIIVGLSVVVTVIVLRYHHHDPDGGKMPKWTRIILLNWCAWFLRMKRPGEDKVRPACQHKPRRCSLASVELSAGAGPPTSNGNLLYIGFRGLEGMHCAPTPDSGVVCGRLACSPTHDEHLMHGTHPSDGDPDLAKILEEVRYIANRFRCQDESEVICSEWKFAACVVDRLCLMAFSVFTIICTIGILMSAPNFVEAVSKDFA

## [11CH3]N1CC2CN(c3ccc(-c4ccccc4)nn3)CC2C1 (stereo not drawn) [[^11C]A-582941, 2-[^11C]Methyl-5-[6-phenylpyridazine-3-yl]octahydropyrrolo[3,4-c]pyrrole]
  % Injected dose/g tissue, Blood: 0.88±0.10 % Injected dose/g tissue
  % Injected dose/g tissue, Cerebellum: 3.71±0.19 % Injected dose/g tissue
  % Injected dose/g tissue, Cerebral cortex: 4.59±0.25 % Injected dose/g tissue
  % Injected dose/g tissue, Hippocampus: 4.05±0.52 % Injected dose/g tissue
  % Injected dose/g tissue, Hypothalamus: 3.51±0.60 % Injected dose/g tissue
  % Injected dose/g tissue, Medulla oblongata: 4.23±0.08 % Injected dose/g tissue
  % Injected dose/g tissue, Midbrain: 4.09±0.52 % Injected dose/g tissue
  % Injected dose/g tissue, Striatum: 4.03±0.45 % Injected dose/g tissue
  % Injected dose/g tissue, Whole brain: 4.23±0.23 % Injected dose/g tissue
